Reference: US12692255B2, “Adenosine 2A receptor modulators for use in the treatment of cancer” (UNIVERSITE DE GENEVE, priority 2022, dated 2026)
Read-outs that look alike come from different tables or passages of the source.

How the values were obtained:
A2AR = A2AR (Homo sapiens, UniProt P29274); test: cAMP biosensor antagonist potency assay in CHO cells expressing recombinant A2AR
Method: Chinese Hamster Ovary (CHO) cells containing an in-house cAMP-based biosensor, described below, and expressing recombinant A2AR were used to characterize the potency of A2AR antagonists according to the invention. The biosensor contains a cAMP binding domain allowing the measurement of Gs and Gi-coupled receptors activation. Cells were treated in a 384 well plate with the indicated concentrations of A2AR antagonists, followed by the addition of an A2AR agonist, adenosine. cAMP levels were measured on a luminescent/fluorescent plate reader.
CHO cells expressing A2AR and the biosensor were seeded in a black 384-well plate (Nunc) and grown at 37° C. and 5% CO2 overnight. […] The cAMP biosensor allowed real-time monitoring of signals using an FDSS/μCELL (Hamamatsu). The assay was conducted in 1× Hanks Balanced Salt Solution (HBSS). The total volume of the reaction was 80 μl (45 μl of cells, 15 μl of antagonist and 20 μl of agonist). Data analysis was performed using GraphPad Prism.

[1] = system: pCREB in gated human CD4+ cells; test: Intracellular pCREB by flow cytometry in NECA-treated PBMCs, gated CD4+ T cells; assay type: cell-based; details: read-out: Activity (reduction of pCREB, restoration to normal physiological levels)
Method: (§1) Human peripheral blood mononuclear cells (PBMCs) were isolated using density centrifugation from fresh whole blood of healthy human blood donors. Cells were cryopreserved and thawed and rested for several hours in complete cell culture media containing human albumin and antibiotics (penicillin and streptomycin; 100 units or mg per ml respectively). […] DMSO was used as the storage diluent for concentrated A2AR antagonists. NECA and DMSO controls (% v/v) were also tested in parallel to the therapeutic candidates. After the indicated incubation time with NECA, cells were either stained to determine their intracellular level of pCREB, or activated with Dynabeads overnight before staining for intracellular cytokines, as described below.
(§2) PBMCs that were cultured with A2AR antagonists in the presence of NECA and were subsequently fixed and permeabilized using ice cold paraformaldehyde and methanol-based kit reagents (ThermoFisher and Miltenyi, respectively). […] Stained cells were acquired using a Fortessa flow cytometer (BD). Gating of the desired cell subsets was performed using FSC-A vs FSC—H to remove doublet cells, FSC vs SSC parameters to identify cells with lymphocyte-like morphology, followed by CD3^+ T cell and CD4^+ or CD8^+ sub-gating. The fold change in mean fluorescence intensity (MFI) of intracellular pCREB in gated CD4 or CD8^+ T cells was calculated using NECA-only conditions, and divided by NECA and A2AR antagonist-cultured cells from the same donor. The overall activity of the tested compounds was calculated using the average of at least 3 donors.
(§3) Compounds of the invention were tested in physiological conditions using healthy human peripheral blood mononuclear cells as well as in the presence of human albumin to increase the physiological relevance of the assay. […] The activity scale represented is the average for at least 3 donors, compared to the NECA-only control.

[2] = system: pCREB in gated human CD8+ cells; test: Intracellular pCREB by flow cytometry in NECA-treated PBMCs, gated CD8+ T cells; assay type: cell-based; details: read-out: Activity (reduction of pCREB, restoration to normal physiological levels)
Method: as §1, §2, §3

[3] = compound at 1 μM, 5 µM NECA, gated human CD4+ cells, average of at least 3 donors vs NECA-only control
[4] = compound at 1 μM, 5 µM NECA, gated human CD8+ cells, average of at least 3 donors vs NECA-only control

Chain of A2AR (P29274 whole entry): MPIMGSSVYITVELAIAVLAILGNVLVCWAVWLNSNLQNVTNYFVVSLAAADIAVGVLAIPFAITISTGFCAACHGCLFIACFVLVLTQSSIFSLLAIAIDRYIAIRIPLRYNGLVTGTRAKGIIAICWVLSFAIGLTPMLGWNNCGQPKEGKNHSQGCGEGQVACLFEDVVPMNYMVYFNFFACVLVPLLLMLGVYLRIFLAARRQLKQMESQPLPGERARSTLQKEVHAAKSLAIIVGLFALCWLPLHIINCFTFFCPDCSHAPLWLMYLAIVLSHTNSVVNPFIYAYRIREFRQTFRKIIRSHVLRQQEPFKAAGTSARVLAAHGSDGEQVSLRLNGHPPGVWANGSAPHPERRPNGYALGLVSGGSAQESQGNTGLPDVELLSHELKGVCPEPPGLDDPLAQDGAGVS

Compound | IC50 (A2AR) | inhibition at 1 µM [1, 3] | inhibition at 1 µM [2, 4] | inhibition at 1 µM ([1]; Homo sapiens) | inhibition at 1 µM ([2]; Homo sapiens)
CCOc1nc(N)c(C#N)c(-c2cccc(-c3ccccc3)c2)c1C#N [Compound 22, 4-([1,1′-biphenyl]-3-yl)-2-amino-6-ethoxypyridine-3,5-dicarbonitrile] | < 0.2 µM |  |  |  | 
N#Cc1c(N)nc(N2CCCCC2)c(C#N)c1-c1cccc(-c2cccc(F)n2)c1 [Compound 25, 2-amino-4-(3-(6-fluoropyridin-2-yl)phenyl)-6-(piperidin-1-yl)pyridine-3,5-dicarbonitrile] | < 0.2 µM |  |  |  | 
COCCOc1ccc(N2CCN(CCn3ncc4c3nc(N)n3nc(-c5ccco5)nc43)CC2)cc1 [Preladenant, 4-(furan-2-yl)-10-[2-[4-[4-(2-methoxyethoxy)phenyl]piperazin-1-yl]ethyl]-3,5,6,8,10,11-hexazatricyclo[7.3.0.0^2,6]dodeca-1(9),2,4,7,11-pentaen-7-amine, reference compound] |  | 70 to 90% | 70 to 90% |  | 
N#Cc1c(N)nc(N2CCCCC2)c(C#N)c1-c1cccc(-c2cccnc2F)c1 [Compound 28, 2-amino-4-(3-(2-fluoropyridin-3-yl)phenyl)-6-(piperidin-1-yl)pyridine-3,5-dicarbonitrile] | < 0.2 µM | > 90% | 70 to 90% |  | 
Cc1ccc(-c2nc(N)nc3c2nnn3Cc2cccc(CO[C@H]3CCOC3)n2)o1 [Ciforadenant, 7-(5-methylfuran-2-yl)-3-[[6-[[(3S)-oxolan-3-yl]oxymethyl]pyridin-2-yl]methyl]triazolo[4,5-d]pyrimidin-5-amine, reference compound] |  | 70 to 90% | 70 to 90% |  | 
Nc1nc(-n2cccn2)nc(-n2cccn2)c1Br [Taminadenant, 5-bromo-2,6-di(pyrazol-1-yl)pyrimidin-4-amine, reference compound] |  | 0 to 40% | 0 to 40% |  | 
COc1nc(N)c(C#N)c(-c2cccc(-c3ccccc3)c2)c1C#N [Compound 21, 4-([1,1′-biphenyl]-3-yl)-2-amino-6-methoxypyridine-3,5-dicarbonitrile] | 0.2 to 1 µM |  |  |  | 
N#Cc1c(N)nc(N2CCCCC2)c(C#N)c1-c1cccc(-c2ccccc2F)c1 [Compound 4, 2-amino-4-(2′-fluoro-[1,1′-biphenyl]-3-yl)-6-(piperidin-1-yl)pyridine-3,5-dicarbonitrile] |  |  |  | > 90% | > 90%
Cc1cc(-c2nnc(N)nc2-c2ccc(F)cc2)cc(Cl)n1 [Imaradenant, 6-(2-chloro-6-methylpyridin-4-yl)-5-(4-fluorophenyl)-1,2,4-triazin-3-amine, reference compound] |  | 40 to 70% | 40 to 70% |  | 
N#Cc1c(N)nc(N2CCCCC2)c(C#N)c1-c1cccc(-c2ccccc2)c1 [Compound 3, 4-([1,1′-biphenyl]-3-yl)-2-amino-6-(piperidin-1-yl)pyridine-3,5-dicarbonitrile] |  |  |  | > 90% | > 90%
Cc1c(C#N)cccc1-c1cc(-c2cn(Cc3cccc(C(C)(C)O)n3)nn2)nc(N)n1 [Etrumadenant, 3-[2-Amino-6-[1-[[6-(2-hydroxypropan-2-yl)pyridin-2-yl]methyl]triazol-4-yl]pyrimidin-4-yl]-2-methylbenzonitrile, reference compound] |  | > 90% | > 90% |  | 
N#Cc1c(N)nc(N2CCCCC2)c(C#N)c1-c1cc(F)cc(-c2cccnc2)c1 [Compound 31, 2-amino-4-(3-fluoro-5-(pyridin-3-yl)phenyl)-6-(piperidin-1-yl)pyridine-3,5-dicarbonitrile] | < 0.2 µM | 40 to 70% | 0 to 40% |  | 
N#Cc1c(N)nc(N2CCCCC2)c(C#N)c1-c1cccc(-c2ncccc2F)c1 [Compound 24, 2-amino-4-(3-(3-fluoropyridin-2-yl)phenyl)-6-(piperidin-1-yl)pyridine-3,5-dicarbonitrile] | < 0.2 µM | 70 to 90% | 40 to 70% |  | 
N#Cc1c(N)nc(N2CCCCC2)c(C#N)c1-c1cccc(-c2cccnc2)c1F [Compound 30, 2-amino-4-(2-fluoro-3-(pyridin-3-yl)phenyl)-6-(piperidin-1-yl)pyridine-3,5-dicarbonitrile] | < 0.2 µM | 40 to 70% | 0 to 40% |  | 
N#Cc1c(N)nc(N2CCCCC2)c(C#N)c1-c1cccc(-c2cc(F)ccn2)c1 [Compound 26, 2-amino-4-(3-(4-fluoropyridin-2-yl)phenyl)-6-(piperidin-1-yl)pyridine-3,5-dicarbonitrile] | 0.2 to 1 µM |  |  |  | 
N#Cc1c(N)nc(N2CCOCC2)c(C#N)c1-c1cccc(-c2ccccc2)c1 [Compound 18, 4-([1,1′-biphenyl]-3-yl)-2-amino-6-morpholinopyridine-3,5-dicarbonitrile] | 0.2 to 1 µM |  |  |  | 
N#Cc1c(N)nc(N2CCCCC2)c(C#N)c1-c1cc(-c2cccnc2)ccc1F [Compound 29, 2-amino-4-(2-fluoro-5-(pyridin-3-yl)phenyl)-6-(piperidin-1-yl)pyridine-3,5-dicarbonitrile] | < 0.2 µM |  |  |  | 
N#Cc1c(N)nc(N2CCCCC2)c(C#N)c1-c1cccc(-c2cncc(F)c2)c1 [Compound 27, 2-amino-4-(3-(5-fluoropyridin-3-yl)phenyl)-6-(piperidin-1-yl)pyridine-3,5-dicarbonitrile] | 0.2 to 1 µM |  |  |  | 
